The target of experiment [1] is T1, PARP3 (Homo sapiens, UniProt Q9Y6F1).
T1 sequence (Q9Y6F1 1-533): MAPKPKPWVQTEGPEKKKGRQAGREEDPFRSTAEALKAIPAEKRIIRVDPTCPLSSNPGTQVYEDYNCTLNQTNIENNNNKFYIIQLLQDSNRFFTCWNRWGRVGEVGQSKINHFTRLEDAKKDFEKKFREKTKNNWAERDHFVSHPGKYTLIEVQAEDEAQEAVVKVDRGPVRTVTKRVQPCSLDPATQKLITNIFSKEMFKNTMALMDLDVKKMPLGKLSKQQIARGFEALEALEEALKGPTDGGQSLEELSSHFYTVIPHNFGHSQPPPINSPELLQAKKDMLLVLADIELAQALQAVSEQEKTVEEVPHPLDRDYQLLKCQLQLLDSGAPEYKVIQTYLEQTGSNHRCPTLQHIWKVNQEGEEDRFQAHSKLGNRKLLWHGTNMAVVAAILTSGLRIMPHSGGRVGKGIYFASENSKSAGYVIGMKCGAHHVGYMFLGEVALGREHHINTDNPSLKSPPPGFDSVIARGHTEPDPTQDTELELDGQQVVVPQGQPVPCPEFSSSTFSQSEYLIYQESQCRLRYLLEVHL
Briefly: PARP profiling, parsylation of immobilized histone. Format: biochemical. The method, then: (§1) Performed by BPS Bioscience Inc., San Diego by following the BPS PARP or TNKS assay kit protocols. The enzymatic reactions were conducted in duplicate at room temperature for 1 hr in a 96 well plate coated with histone substrate. […] of reaction buffer (Tris.HCl, pH 8.0) contains NAD^+, biotinylated NAD^+, activated DNA, recombinant PARP enzyme and 10 μM of the test compound. […] After enzymatic reactions, 50 μL of Streptavidin-horseradish peroxidase was added to each well and the plate was incubated at room temperature for an additional 30 min. 100 μL of developer reagents were added to wells and luminescence was measured using a BioTek Synergy™ 2 microplate reader.

The target in experiment [2] is PARP7 (Homo sapiens, UniProt Q7Z3E1). Briefly: PARP profiling, parsylation of immobilized histone. The class given is biochemical. To be noted: IWR compounds 10 μM. The procedure: as §1
Experiment [3] addresses T2, PARP10 (Homo sapiens, UniProt Q53GL7).
T2 sequence (Q53GL7 1-1025): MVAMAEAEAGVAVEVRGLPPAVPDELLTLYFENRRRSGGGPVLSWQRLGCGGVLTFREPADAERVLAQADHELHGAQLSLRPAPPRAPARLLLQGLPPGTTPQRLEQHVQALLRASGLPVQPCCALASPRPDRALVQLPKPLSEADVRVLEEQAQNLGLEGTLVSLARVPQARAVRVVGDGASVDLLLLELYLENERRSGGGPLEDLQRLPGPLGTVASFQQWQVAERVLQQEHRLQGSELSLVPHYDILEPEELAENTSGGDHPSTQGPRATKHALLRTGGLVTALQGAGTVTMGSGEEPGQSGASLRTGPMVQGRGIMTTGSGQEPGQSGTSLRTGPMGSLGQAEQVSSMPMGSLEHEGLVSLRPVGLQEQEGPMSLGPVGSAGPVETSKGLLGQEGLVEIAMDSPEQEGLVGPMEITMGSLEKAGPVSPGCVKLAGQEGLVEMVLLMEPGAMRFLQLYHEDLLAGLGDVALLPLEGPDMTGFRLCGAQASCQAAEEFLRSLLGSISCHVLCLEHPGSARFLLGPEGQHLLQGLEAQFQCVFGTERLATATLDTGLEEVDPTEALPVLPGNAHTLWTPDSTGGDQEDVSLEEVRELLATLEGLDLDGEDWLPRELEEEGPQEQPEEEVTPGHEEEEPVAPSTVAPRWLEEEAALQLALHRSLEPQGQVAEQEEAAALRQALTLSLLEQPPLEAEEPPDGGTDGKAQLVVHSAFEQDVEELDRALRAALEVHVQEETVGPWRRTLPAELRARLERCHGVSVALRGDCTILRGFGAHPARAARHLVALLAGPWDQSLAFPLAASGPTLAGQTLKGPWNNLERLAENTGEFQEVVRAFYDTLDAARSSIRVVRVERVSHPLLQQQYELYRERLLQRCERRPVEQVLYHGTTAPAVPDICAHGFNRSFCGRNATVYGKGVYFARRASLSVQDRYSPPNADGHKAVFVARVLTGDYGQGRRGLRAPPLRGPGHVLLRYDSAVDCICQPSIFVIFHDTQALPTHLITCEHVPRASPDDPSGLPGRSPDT
The experiment can be described thus: PARP profiling, parsylation of immobilized histone. The class given is biochemical. The method, then:
as §1

For experiment [4], the target named is PARP11 (Homo sapiens, UniProt Q9NR21). The experiment can be described thus: PARP profiling, parsylation of immobilized histone. The class given is biochemical. As to conditions: IWR compounds 10 μM. The method, then:
as §1

The test system of experiment [5] is HeLa cells. Briefly: Terminal restriction fragment (TRF) telomere length assay. As to conditions: up to 40 population doublings, FIGS. 6A-B. The class given is cell-based, human. The method, then: FIGS. 6A-6C show Tnks inhibitors but not a Porcn inhibitor induce telomeric shortening. […] HeLa cells were incubated with IWR-1, IWR-8, or IWP-6 at various concentrations for the indicated number of population doublings (PD) and telomere length measured by terminal restriction fragment (TRF) analysis. Density of radioprobe hybridization relative to the vertical distance from the largest molecular weight marker was quantified using ImageJ and the point of highest density in each lane marked by a dark line. Position of control telomere restricted fragment signal is indicated with dotted line. Lanes with insufficient strength in labeling or that were disrupted with blemishes during experimental processing were not quantified. […] The same assay described in “A” was used to test the Porcn inhibitor IWP-2. (FIG. 6C) Model of Tnks-dependent regulation of Wnt/β-catenin transcriptional and telomere length maintenance in human cells. Excessive Terf1 binding to DNA in the absence of Tnks-mediated Terf1 parsylation results in replication fork stalling in telomeres (Munoz, et al., 2009; Ohki and Ishikawa, 2004) which then presumably results in telomere shortening. […]
1×10^6 cells were collected and washed with PBS. […] Gels were exposed to a Phosphorlmager screen overnight and analyzed using a Typhoon Phosphorlmager scanner system (Molecular Dynamics). […]

Molecules are shown by their SMILES.

Chain of PARP11 (Q9NR21 whole entry): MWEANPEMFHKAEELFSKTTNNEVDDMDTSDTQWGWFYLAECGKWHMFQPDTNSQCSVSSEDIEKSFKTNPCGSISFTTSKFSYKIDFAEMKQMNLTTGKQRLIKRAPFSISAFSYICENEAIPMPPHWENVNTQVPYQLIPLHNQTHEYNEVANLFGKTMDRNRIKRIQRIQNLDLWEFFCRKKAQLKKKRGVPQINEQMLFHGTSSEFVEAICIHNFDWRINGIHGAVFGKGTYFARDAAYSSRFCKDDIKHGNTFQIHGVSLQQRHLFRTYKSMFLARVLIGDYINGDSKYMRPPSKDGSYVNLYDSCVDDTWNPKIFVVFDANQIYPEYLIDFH
Chain of PARP7 (Q7Z3E1 whole entry): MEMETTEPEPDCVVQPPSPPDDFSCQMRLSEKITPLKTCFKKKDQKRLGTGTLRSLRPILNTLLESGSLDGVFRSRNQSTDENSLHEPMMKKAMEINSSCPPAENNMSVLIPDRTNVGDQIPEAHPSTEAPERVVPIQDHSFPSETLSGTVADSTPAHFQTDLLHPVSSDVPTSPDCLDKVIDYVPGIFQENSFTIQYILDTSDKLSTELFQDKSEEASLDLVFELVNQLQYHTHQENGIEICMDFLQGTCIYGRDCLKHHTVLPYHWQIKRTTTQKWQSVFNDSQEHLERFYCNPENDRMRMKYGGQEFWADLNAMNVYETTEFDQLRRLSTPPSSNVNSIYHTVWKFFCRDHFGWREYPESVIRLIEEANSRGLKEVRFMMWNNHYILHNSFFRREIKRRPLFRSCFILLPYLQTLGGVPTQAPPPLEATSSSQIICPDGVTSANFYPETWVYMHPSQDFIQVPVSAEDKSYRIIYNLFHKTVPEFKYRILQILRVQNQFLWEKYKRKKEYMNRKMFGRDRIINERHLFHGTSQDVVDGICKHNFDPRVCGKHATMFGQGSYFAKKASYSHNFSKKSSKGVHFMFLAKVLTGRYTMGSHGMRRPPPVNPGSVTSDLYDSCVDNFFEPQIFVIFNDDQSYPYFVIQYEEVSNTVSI

By % inhibition is commonly meant the drop in the measured response relative to a control, in per cent. As for `O=C(Nc1cccc2cccnc12)c1ccc(N2C(=O)[C@@H]3[C@H](C2=O)[C@@H]2C=C[C@H]3C2)cc1` [IWR-1], the “% inhibition” value in experiment [1] (IWR compounds 10 μM) stood at 6%; in experiment [2], 7%; in experiment [3] (IWR compounds 10 μM), 18%; in experiment [4] it was 2%. The telomere length entry in experiment [5] is “induced shortened telomere length in a dose-dependent manner”.

Usually inhibition stands for how much of the control response was suppressed. As for `O=C(c1cc(Cc2n[nH]c(=O)c3ccccc23)ccc1F)N1CCN(C(=O)C2CC2)CC1` [Olaparib], the inhibition at 0.02 µM in experiment [1] was 100%; in experiment [3], 99%.

Regarding `CCN(C(=O)C1CCN(S(=O)(=O)c2cc3c(cc2Br)CCN3C(C)=O)CC1)c1cccc(C)c1` [IWR-8], the inhibition at 10 µM in experiment [1] was found to be 11%; in experiment [2], 8%; in experiment [3] (IWR compounds 10 μM) it was 9%; in experiment [4], 12%. Further, in experiment [5], the telomere length result is listed as “induced shortened telomere length in a dose-dependent manner”.

The values are drawn from patent publication US10420758B2, “Indolinyl-sulfonamide inhibitors of tankyrase and methods of use thereof” (The Board of Regents of the University of Texas System, priority 2015, dated 2019).
